Experimental data reported in patent US20240270713A1, “NOVEL COMPOUND EXHIBITING THERAPEUTIC EFFECT ON INFLAMMATORY DISEASE AS P38 MAP KINASE INHIBITOR” (PRAZERTHERAPEUTICS INC., priority 2021, published 2024).

Experiments:
TNFα = TNFα inhibitory ability by cellular inflammatory response (supernatant, antibody-coated plate), Raw264.7 cells; type: cell-based; conditions: Mus musculus, 1 μM compound 24 hours, then 100 ng/ml LPS 24 hours, supernatant protein
Procedure: Evaluation of TNFα inhibitory ability by cellular inflammatory response
(§1) In order to identify inhibition of p-p38 MAPK, inhibition of p38 MAPK was identified after treating each compound to Raw264.7 cells obtained by converting macrophages that induces inflammation according to p-p38 MAPK activity cancerous cells. Briefly, Raw264.7 cells were cultured in Dulbecco's modified Eagle Medium supplemented with 10% fetal bovine serum and penicillin/streptomycin (100 U/ml). Raw264.7 cells were treated with 1 μM of Compounds 1 to 5 according to the present disclosure in a culture dish respectively and cultured for 24 hours in a CO2 incubator, and then treated with 100 ng/ml of LPS, followed by additional culture for 24 hours in a CO2 incubator.
After the cell culture was completed according to the experimental conditions, the supernatant was obtained and centrifuged for 3 minutes at 1200 rpm. The centrifuged supernatant was dispensed into an antibody-coated plate, reacted at room temperature for 2 hours, and washed with PBS-T (0.5% tween 20 in PBS). After dispensing detection antibody including HRP, a reaction was performed at room temperature for 1 hour, and the amount of protein was checked at a wavelength of 450 nm, the results of which are shown in Table 7 below.

TNFα mRNA [1] = experiment: Cytokine mRNA expression inhibitory ability, TNFα, LPS-treated Raw264.7 cells; type: cell-based; conditions: 1 μM compound 24 hours, then 100 ng/ml LPS 24 hours
Procedure: (§2) Evaluation of cytokine mRNA expression inhibitory ability according to inflammatory response
as §1
(§3) After cell culture was terminated according to the experimental conditions, cells were washed with cold phosphate buffered saline (PBS). The cells were then collected and centrifuged at 1200 rpm for 3 minutes. RNA was extracted according to the method provided in the Hybrid-R total RNA purification kit (GeneAll, 305-101). After measuring the concentration and purity of RNA using Nanodrop, cDNA was synthesized according to the method provided in TOPscript RT DryMIX (Enzynomics, RT200). After a reaction at 95° C. for 3 minutes using SYBR Green Mix along with primer, cDNA was subjected to repetitive reactions 30 times at 95° C. for 10 seconds, at 55° C. for 10 seconds, and at 72° C. for 30 seconds to determine the RNA expression level. The results are shown in Tables 5 and 6 below and FIGS. 1 and 2.

p-p38 MAPK [2] = target: T1, p-p38 MAPK (Mus musculus (Mouse), UniProt P47811); experiment: p38 MAPK protein inhibitory ability in cells (p-p38 immunoblot, LPS-treated Raw264.7); type: cell-based; conditions: Raw264.7 cells, 1 μM compound 24 hours, then 100 ng/ml LPS 6 hours
T1 sequence (P47811 whole entry): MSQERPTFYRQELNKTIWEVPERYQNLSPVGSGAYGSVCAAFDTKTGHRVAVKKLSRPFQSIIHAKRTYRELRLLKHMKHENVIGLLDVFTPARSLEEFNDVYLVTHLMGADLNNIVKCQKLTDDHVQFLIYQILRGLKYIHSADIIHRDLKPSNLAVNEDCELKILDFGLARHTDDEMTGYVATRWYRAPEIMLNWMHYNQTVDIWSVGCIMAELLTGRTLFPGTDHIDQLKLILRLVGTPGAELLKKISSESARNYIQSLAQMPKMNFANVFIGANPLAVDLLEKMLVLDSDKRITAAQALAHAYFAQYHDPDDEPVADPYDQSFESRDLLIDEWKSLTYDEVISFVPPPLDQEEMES
Procedure: Evaluation of p38 MAPK protein inhibitory ability in cells
as §1, with “Raw264.7 cells which are obtained by” for “Raw264.7 cells obtained by”, “MAPK activity into cancerous cells.” for “MAPK activity cancerous cells.”, “culture for 6 hours in” for “culture for 24 hours in”
(§4) After cell culture was terminated according to the experimental conditions, cells were washed with cold phosphate buffered saline (PBS). The cells were then collected and centrifuged at 1200 rpm for 3 minutes. The pellet was lysed with 2X sample buffer (1M Tris-HCl pH 6.8, 50% glycerol, 10% SDS, 2-mercaptoethanol, 1% bromophenol blue) and boiled at 100° C. for 10 minutes. The prepared protein samples were subjected to sodium dodecyl sulfate poly acrylamide gel electrophoresis and transferred to PVDF membrane (Millipore). For a specific binding reaction between the protein in the PVDF membrane and antibody, blocking was performed in a 5% bovine serum albumin (BSA, RMbio) solution. Subsequently, the BSA solution was discarded, and the membrane was washed with PBS-T (0.5% Tween 20 in PBS). The binding reaction of the protein in the membrane and antibody was performed overnight at 4° C. and washed again with PBS-T. Finally, a secondary antibody (Cell signaling Technology) conjugated with horse radish peroxidase (HRP) was diluted in PBS-T and reacted at room temperature for 2 hours. Luminata Forte HRP substrate (Millipore) was used to determine the amount of protein in the membrane, the results of which are shown in Table 4 below.

p38 alpha = p38 alpha (Homo sapiens (Human), UniProt Q16539); experiment: p38α MAPK inhibitory ability (peptide/kinase mixture, development reagent, 445/520 nm); type: biochemical; conditions: 1 hour at room temperature
p38 alpha, sequence (Q16539 whole entry): as the sequence (P47811 whole entry) above, with H48L, A263T counted along it
Procedure: Evaluation of p38a mitogen-activated protein kinase (MAPK) inhibitory ability
To determine the ability to inhibit p38 MAPK, Compounds 1 to 5 were diluted to determine the inhibitory effect depending on a concentration. Briefly, the compounds were diluted at concentrations of 1000, 333, 111, 37.0, 12.3, 4.12, 1.37, 0.457, 0.152, and 0.0495 nM, respectively, and then a peptide/kinase mixture (final 7.07-28.3 ng p38 alpha, 2 μM serine/threonine 15, 50 mM HEPES pH 7.0, 0.01% NaN3) and ATP solution were added respectively. After reacting at room temperature for 1 hour, a development reagent was added, followed by a reaction again at room temperature for 1 hour.

IL-1β mRNA [3] = experiment: Cytokine mRNA expression inhibitory ability, IL-1β, LPS-treated Raw264.7 cells; type: cell-based; conditions: 1 μM compound 24 hours, then 100 ng/ml LPS 24 hours
Procedure: as §2, §1, §3

IL-1β mRNA [4] = experiment: Cytokine mRNA expression inhibitory ability, IL-1β, LPS-treated BV2 cells; type: cell-based; conditions: 1 μM compound 24 hours, then 1000 ng/ml LPS 24 hours
Procedure: (§5) Evaluation of cytokine mRNA expression inhibitory ability by inflammatory response
(§6) In order to identify inhibition of p-p38 MAPK, the inhibition of p38 MAPK was identified by treating each compound to BV2 cells obtained by converting microglia that induces inflammation according to p-p38 MAPK activity in the brain into cancerous cells. Briefly, BV2 cells were cultured in Dulbecco's modified Eagle Medium supplemented with 10% fetal bovine serum and penicillin/streptomycin (100 U/ml). BV2 cells were treated with 1 μM of Compounds 4 to 6 according to the present disclosure in a culture dish respectively and cultured for 24 hours in a CO2 incubator, and then treated with 1000 ng/ml of LPS, followed by additional culture for 24 hours in a CO2 incubator.
(§7) After the cell culture was completed according to the experimental conditions, washing was performed with cold phosphate buffered saline (PBS). The cells were then collected and centrifuged at 1200 rpm for 3 minutes. RNA was extracted according to the method provided in the Hybrid-R total RNA purification kit (GeneAllR), 305-101). After measuring the concentration and purity of RNA using Nanodrop, cDNA was synthesized according to the method provided in TOPscript RT DryMIX (Enzynomics, RT200). […]

p-p38 MAPK [5] = target: p-p38 MAPK (Homo sapiens (Human), UniProt Q16539); experiment: p38 MAPK protein inhibitory ability in brain-derived cells (p-p38 immunoblot, SH-SY5Y); type: cell-based
p-p38 MAPK (Homo sapiens (Human), UniProt Q16539), sequence (Q16539 whole entry): as the sequence (P47811 whole entry) above, with H48L, A263T counted along it
Procedure: Evaluation of p38 MAPK protein inhibitory ability in brain-derived cells
In order to identify inhibition of p-p38 MAPK in brain cells, the inhibition of p38 MAPK was identified by inducing inflammation after treating each compound to SH-SYSY cells obtained by converting human neurons into cancerous cells. In short, SH-SY5Y cells were cultured in Minimum essential medium/Eagle's balanced salts supplemented with 10% fetal bovine serum and penicillin/streptomycin (100 U/ml). SH-SY5Y cells were treated with 1 μM of Compounds 4 and 6 according to the present disclosure in a culture dish respectively and cultured for 24 hours in a CO2 incubator, and then treated with 1000 ng/ml of LPS, followed by additional culture for 6 hours in a CO2 incubator.
as §4, with “The cells in the sediment were” for “The pellet was”, “Table 8” for “Table 4”

TNFα mRNA [6] = experiment: Cytokine mRNA expression inhibitory ability, TNFα, LPS-treated BV2 cells; type: cell-based; conditions: 1 μM compound 24 hours, then 1000 ng/ml LPS 24 hours
Procedure: as §5, §6, §7

p-p38 MAPK [7] = target: T1, p-p38 MAPK; experiment: p38 MAPK protein inhibitory ability in normal brain cells (p-p38 immunoblot, primary neurons); type: cell-based, ICR mice
Description: Evaluation of p38 MAPK protein inhibitory ability in normal brain cells
In order to identify inhibition of p-p38 MAPK in normal cells rather than cancer cells, the inhibition of p38 MAPK was identified by inducing inflammation after treating neuron cells obtained from cerebrum of ICR mice with each compound. In short, neurons were collected from the cerebrum of the embryos of ICR mice 17-18 days after gestation and cultured for 7 days in a neurobasal medium supplemented with 2% B27 supplements, 2 mM glutamine, and penicillin/streptomycin (100 U/ml). Primary neurons were treated with 1 μM of Compounds 4 and 6 according to the present disclosure in a culture dish respectively and cultured for 24 hours in a CO2 incubator, and then treated with 1000 ng/ml of LPS, followed by additional culture for 6 hours in a CO2 incubator.
as §4, with “After the” for “After”, “conditions, washing was performed” for “conditions, cells were washed”, “The cells in the sediment were” for “The pellet was”, “reaction between” for “reaction of”, “Table 9” for “Table 4”

IL-6 mRNA = experiment: Cytokine mRNA expression inhibitory ability, IL-6, LPS-treated BV2 cells; type: cell-based; conditions: 1 μM compound 24 hours, then 1000 ng/ml LPS 24 hours
Procedure: as §5, §6, §7

SMILES | inhibition at 1 µM (TNFα) [%] | TNFα mRNA inhibition (TNFα mRNA [1]) [%] | inhibition at 1 µM (p-p38 MAPK [2]) [%] | IC50 (p38 alpha) [nM] | IL-1β mRNA inhibition (IL-1β mRNA [3]) [%] | IL-1β mRNA inhibition (IL-1β mRNA [4]) [%] | p38 phosphorylation in cells derived from human (result in words) (p-p38 MAPK [5]; 1 μM) | inhibition at 1 µM (p-p38 MAPK [5]; 1 μM compound 24 hours, then 1000 ng/ml LPS 6 hours) [%] | TNFα mRNA inhibition (TNFα mRNA [6]) [%] | p38 phosphorylation due to inflammation in normal cells (result in words) (p-p38 MAPK [7]; primary mouse neurons, 1 μM) | inhibition at 1 µM (p-p38 MAPK [7]; primary neurons from cerebrum of ICR mouse embryos, 1 μM compound 24 hours, then 1000 ng/ml LPS 6 hours) [%] | IL-6 mRNA inhibition (IL-6 mRNA) [%]
Cc1c(F)cc(C(=O)NC2CC2)cc1-c1ccc(C(=O)c2ccc(OCC(O)CO)cc2)cn1 (stereo not drawn) [Compound 1, N-cyclopropyl-3-(5-(4-(2,3-dihydroxypropoxy)benzoyl)pyridin-2-yl)-5-fluoro-4-methylbenzamide] | 22.1 | 38.1 | 11.3 | 22.3 | 21.4 |  |  |  |  |  |  | 
O=C(NC1CC1)c1ccc(Cl)c(-c2ccc(C(=O)c3c[nH]c4ccccc34)cc2)c1 [Compound 2, 6-chloro-N-cyclopropyl-4′-(1H-indole-3-carbonyl)-[1,1′-biphenyl]-3-carboxamide] | 68.5 | 37.6 | 69 | 34.1 | 24.4 |  |  |  |  |  |  | 
Cc1c(F)cc(C(=O)NC2CC2)cc1-c1ccc(C(=O)c2c[nH]c3cc(OCC(O)CO)ccc23)cn1 (stereo not drawn) [Compound 3, N-cyclopropyl-3-(5-(6-(2,3-dihydroxypropoxy)-1H-indole-3-carbonyl)pyridin-2-yl)-5-fluoro-4-methylbenzamide] | 16.7 | 39.2 | 39.7 | 34.3 | 12.3 |  |  |  |  |  |  | 
Cc1c(F)cc(C(=O)NC2CC2)cc1-c1ccc(C(=O)c2cn(Cc3ccccc3)c3ccccc23)cn1 [Compound 5, 3-(5-(1-benzyl-1H-indole-3-carbonyl)pyridin-2-yl)-N-cyclopropyl-5-fluoro-4-methylbenzamide] | 23.8 | 4.1 | 52.8 | 193 | 3.2 |  |  |  |  |  |  | 
Cc1c(F)cc(C(=O)NC2CC2)cc1-c1ccc(C(=O)c2cn(CC(O)CO)c3ccccc23)cn1 (stereo not drawn) [Compound 6, N-cyclopropyl-3-(5-(1-(2,3-dihydroxypropyl)-1H-indole-3-carbonyl)pyridin-2-yl)-5-fluoro-4-methylbenzamide] |  |  |  |  |  | 12.6 | effectively inhibited p38 phosphorylation | 22.8 | 15.7 | effectively inhibited p38 phosphorylation | 60.7 | 14.4
